Laboratory results published in patent US9676760B2, “Fused heterocyclic compounds as ion channel modulators” (Gilead Sciences, Inc., priority 2011, dated 2017).

Columns and labels:
[1] = biological target: hNav 1.8 sodium channel isoform (Homo sapiens, UniProt Q9Y5Y9); test: hNav1.8 sodium channel block; type: cell-based
From the text: Compounds of this disclosure that block cardiac late INa may also mediate UDB of other Na^+ channel isoforms including the major Na^+ channel isoforms in peripheral nervous system pain fibers, NaV1.7 and 1.8. Compounds of this disclosure that block these channels may also be useful to decrease neuropathic pain.
The inhibition of either hNav 1.7 and hNav 1.8 isoforms or the inhibition of both channels when stimulated at these frequencies support the use of compounds of this disclosure to decrease neuropathic pain.

[2] = biological target: cardiac L-type Ca2+ channel (hCav1.2) (Homo sapiens, UniProt Q13936); test: L-type Ca2+ channel assay - ChanTest (PatchXpress, CHO cells); type: cell-based
Chain of cardiac L-type Ca2+ channel (hCav1.2) (Q13936 whole entry): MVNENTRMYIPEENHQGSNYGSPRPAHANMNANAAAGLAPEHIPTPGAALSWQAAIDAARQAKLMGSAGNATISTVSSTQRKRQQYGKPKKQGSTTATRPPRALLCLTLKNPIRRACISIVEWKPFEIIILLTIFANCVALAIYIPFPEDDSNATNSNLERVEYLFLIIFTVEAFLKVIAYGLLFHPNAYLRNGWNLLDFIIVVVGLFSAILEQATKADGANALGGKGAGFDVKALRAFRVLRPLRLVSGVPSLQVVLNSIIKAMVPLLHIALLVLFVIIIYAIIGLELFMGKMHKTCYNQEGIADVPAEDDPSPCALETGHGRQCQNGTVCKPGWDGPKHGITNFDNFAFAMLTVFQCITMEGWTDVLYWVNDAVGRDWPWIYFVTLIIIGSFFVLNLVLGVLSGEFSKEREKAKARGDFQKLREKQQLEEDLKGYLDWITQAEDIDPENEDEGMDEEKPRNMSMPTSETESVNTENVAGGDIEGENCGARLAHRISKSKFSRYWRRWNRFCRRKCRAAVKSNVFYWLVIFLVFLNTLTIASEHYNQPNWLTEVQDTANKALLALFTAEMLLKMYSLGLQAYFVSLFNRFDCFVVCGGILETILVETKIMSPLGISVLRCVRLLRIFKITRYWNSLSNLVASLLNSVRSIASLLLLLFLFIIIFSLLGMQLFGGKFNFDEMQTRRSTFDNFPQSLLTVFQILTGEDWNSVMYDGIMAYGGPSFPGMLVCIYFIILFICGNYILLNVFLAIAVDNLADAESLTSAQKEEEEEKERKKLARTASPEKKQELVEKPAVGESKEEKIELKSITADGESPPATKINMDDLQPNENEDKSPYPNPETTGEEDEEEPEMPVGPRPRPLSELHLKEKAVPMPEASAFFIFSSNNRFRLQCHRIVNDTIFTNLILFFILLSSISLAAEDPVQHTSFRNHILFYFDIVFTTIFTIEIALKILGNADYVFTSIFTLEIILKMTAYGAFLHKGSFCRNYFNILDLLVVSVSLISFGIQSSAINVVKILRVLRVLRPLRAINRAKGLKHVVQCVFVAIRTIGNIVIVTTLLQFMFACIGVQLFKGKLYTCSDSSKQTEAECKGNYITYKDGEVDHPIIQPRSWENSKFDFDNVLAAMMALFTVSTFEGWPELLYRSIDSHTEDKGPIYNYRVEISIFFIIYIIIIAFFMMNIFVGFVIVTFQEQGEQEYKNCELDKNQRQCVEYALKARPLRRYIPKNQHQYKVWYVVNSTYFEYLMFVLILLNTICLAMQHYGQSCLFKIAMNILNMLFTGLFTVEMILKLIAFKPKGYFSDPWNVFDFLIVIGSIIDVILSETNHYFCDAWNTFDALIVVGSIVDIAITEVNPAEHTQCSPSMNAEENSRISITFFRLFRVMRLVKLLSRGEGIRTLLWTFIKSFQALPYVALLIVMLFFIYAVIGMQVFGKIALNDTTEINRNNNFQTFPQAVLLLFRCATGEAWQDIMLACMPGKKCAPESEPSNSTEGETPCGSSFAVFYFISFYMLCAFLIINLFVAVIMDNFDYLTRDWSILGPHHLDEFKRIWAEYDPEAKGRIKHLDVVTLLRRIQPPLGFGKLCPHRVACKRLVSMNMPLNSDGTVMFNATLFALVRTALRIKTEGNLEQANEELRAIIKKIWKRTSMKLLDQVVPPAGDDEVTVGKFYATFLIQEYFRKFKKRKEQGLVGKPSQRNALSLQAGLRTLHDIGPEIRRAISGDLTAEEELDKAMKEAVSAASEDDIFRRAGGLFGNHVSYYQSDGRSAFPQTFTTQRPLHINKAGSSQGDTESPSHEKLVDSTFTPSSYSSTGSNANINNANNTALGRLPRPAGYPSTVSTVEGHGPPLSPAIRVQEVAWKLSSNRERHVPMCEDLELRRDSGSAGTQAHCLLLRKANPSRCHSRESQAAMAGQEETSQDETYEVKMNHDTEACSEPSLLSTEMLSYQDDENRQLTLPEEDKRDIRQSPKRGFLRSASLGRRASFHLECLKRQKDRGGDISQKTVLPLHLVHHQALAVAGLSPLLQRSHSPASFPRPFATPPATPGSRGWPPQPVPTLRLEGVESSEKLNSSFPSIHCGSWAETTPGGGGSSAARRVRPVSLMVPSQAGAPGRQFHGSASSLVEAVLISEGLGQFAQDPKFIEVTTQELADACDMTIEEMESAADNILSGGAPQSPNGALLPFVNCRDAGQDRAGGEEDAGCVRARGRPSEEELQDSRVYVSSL
Chain of cardiac L-type Ca2+ channel (hCav1.2) (Q08289 whole entry partner): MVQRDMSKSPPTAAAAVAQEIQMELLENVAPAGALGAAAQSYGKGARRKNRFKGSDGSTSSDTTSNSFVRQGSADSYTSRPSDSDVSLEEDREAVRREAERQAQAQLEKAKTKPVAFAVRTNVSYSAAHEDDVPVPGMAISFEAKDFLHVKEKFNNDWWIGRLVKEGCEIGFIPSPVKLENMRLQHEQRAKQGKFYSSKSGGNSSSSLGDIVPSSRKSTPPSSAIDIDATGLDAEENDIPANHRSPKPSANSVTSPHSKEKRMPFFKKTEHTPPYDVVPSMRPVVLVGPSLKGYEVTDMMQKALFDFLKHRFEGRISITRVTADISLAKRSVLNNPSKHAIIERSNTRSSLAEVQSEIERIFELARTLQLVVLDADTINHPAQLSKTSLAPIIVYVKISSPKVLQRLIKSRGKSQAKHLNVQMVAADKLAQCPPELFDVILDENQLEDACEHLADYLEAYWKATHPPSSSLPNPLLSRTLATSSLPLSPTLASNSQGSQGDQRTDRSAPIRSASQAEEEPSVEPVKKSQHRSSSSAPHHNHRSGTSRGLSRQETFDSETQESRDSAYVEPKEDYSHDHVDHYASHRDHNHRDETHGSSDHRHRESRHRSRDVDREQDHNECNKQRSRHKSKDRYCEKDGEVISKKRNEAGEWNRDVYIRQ
Chain of cardiac L-type Ca2+ channel (hCav1.2) (P54289 25-956 partner limits assumed): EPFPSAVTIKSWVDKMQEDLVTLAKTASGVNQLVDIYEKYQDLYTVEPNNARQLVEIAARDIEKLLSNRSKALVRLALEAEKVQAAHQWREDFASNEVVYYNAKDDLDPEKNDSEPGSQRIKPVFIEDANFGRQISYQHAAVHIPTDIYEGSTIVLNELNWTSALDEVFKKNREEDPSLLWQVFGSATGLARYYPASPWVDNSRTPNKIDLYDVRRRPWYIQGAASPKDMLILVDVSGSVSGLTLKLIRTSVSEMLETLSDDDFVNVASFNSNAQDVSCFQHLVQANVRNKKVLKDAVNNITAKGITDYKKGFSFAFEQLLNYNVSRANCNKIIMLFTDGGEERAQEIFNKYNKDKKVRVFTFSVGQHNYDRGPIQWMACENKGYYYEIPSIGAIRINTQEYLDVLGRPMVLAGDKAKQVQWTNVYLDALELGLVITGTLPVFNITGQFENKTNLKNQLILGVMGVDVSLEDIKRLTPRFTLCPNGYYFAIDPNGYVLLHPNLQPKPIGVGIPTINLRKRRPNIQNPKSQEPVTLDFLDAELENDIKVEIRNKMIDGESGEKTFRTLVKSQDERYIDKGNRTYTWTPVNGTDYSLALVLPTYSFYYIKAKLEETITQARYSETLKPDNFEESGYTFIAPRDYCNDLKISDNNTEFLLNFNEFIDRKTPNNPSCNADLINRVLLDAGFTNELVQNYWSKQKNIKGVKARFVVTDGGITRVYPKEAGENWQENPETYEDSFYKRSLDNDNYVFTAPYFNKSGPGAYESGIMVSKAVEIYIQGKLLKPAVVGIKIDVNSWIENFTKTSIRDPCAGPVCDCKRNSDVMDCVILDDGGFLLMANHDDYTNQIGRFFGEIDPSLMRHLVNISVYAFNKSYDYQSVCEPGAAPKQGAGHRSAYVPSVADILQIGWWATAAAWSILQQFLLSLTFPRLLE
Chain of cardiac L-type Ca2+ channel (hCav1.2) (P54289 957-1103 partner limits assumed): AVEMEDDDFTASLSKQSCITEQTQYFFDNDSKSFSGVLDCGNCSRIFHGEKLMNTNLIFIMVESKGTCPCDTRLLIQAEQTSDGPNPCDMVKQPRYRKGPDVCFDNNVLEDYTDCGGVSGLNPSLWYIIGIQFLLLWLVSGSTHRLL
From the text: Selected compounds were screened for block of the cardiac L-type Ca^2+ channel (hCav1.2, encoded by the human CACNA1C gene and coexpressed with the beta 2 subunit, encoded by the human CACNB2 gene and alpha2delta1, encoded by the CACNA2D1 gene). The Ca^2+ channel is heterologously expressed in a CHO (Chinese Hamster Ovary) cell line. Cells are maintained following standard tissue culture procedures and stable channel expression is maintained with appropriate selection antibiotics in the culture medium. Cells are harvested for testing on the PatchXpress automated patch clamp (Model 7000A, Molecular Devices, Sunnyvale, Calif.) by washing twice with Hank's Balanced Salt Solution, treating the cells with trypsin and re-suspending cells in culture medium (4-6×10^6 cells in 20 mL). Cells in suspension are allowed to recover for 10 minutes in a tissue culture incubator set at 37° C. in a humidified 95% air, 5% CO2 atmosphere.
The following solutions are used for electrophysiological recordings. The external solution contains (mM): 137 NaCl, 4 KCl, 1.8 CaCl2, 1 MgCl2, 10 Glucose, 10 HEPES (pH 7.4 with NaOH). The internal solution contains (mM): 130 Cs Aspartate, 5 MgCl2, 10 EGTA, 4 ATP, 0.5 GTP, 10 HEPES, (pH adjusted to 7.2 with N-methyl-D-glucamine).
Vehicle is applied to naive cells (n≧2, where n=the number cells), for a 5-10 minute exposure interval. Each solution exchange is performed in quadruplicate. At the end of each experiment, a saturating concentration of nifedipine (10 μM) is added to block hCav1.2 current. Leak current is digitally subtracted from the total membrane current record.
Test compound stock solutions are prepared by addition of dimethyl sulfoxide (DMSO) and stored frozen. Each test compound DMSO stock is sonicated (Model 2510/5510, Branson Ultrasonics, Danbury, Conn.), at ambient room temperature for at least 20 minutes to facilitate dissolution. Test compound concentrations are prepared fresh daily by diluting stock solutions into the standard extracellular physiological saline solution (see above). The maximum percent of DMSO added with compound is 0.1%. All test compound and control solutions are placed in a glass-lined 96-well compound plate before loading on PatchXpress.
Two concentrations (1, 10 μM) of each test compound are applied at five (5) minute intervals via disposable polyethylene micropipette tips to naïve cells (n≧2, where n=the number cells/concentration). Each test compound concentration is added to the cell in quadruplicate. […]
Onset and steady state block of hCav1.2 (α1C/β2/α2δ[…] channels is measured using a stimulus voltage pattern consisting of a depolarizing test pulse (duration, 200 ms; amplitude, 10 mV) at 10 s intervals from a −80 mV holding potential. Peak current is measured during a step to 10 mV.

[3] = tested on: Female New Zealand rabbits; test: Ischemia-induced ST segment elevation in anesthetized rabbits; type: in vivo, rabbit
Experimental: This study was undertaken to determine the anti-ischemic effects of compounds of the present disclosure in an in vivo rabbit model.
Female New Zealand rabbits (3.0-4.0 kg) were purchased from Western Oregon Rabbitry. Animals were housed on a 12-h light and dark cycle and received standard laboratory chow and water. All experiments were performed in accordance with the Guide for the Care and Use of Laboratory Animals published by The National Research Council and with the experimental protocol approved by the Institutional Animal Care Committee of Gilead Sciences, Inc.
Rabbits were anesthetized with ketamine (35 mg/kg) and xylazine (5 mg/kg) intramuscular injection (im). A tracheotomy was performed and the trachea was intubated with an endotracheal tube. The animal was ventilated with room air supplemented with oxygen using a pressure control animal ventilator (Kent Scientific Corp., Torrington, Conn.) at a respiratory rate of 40 strokes/min and peak inspiration pressure of 10 mmH2O, which was adjusted to keep blood gases and pH within the physiological range (iSTAT clinic analyzer, Heska Corp.; Waukesha, Wis.). The left femoral artery was cannulated for the measurement of blood pressure (BP). Blood samples were also withdrawn from femoral artery. The right external jugular vein was cannulated for drug/vehicle administration. Needle electrodes were inserted subcutaneously into the limbs for recording of the surface electrocardiogram (ECG). The heart was exposed via an incision in the 4th intercostal space (4th and/or 5th ribs were cut for a clear surgical vision). The chest was opened and a pericardial cradle was formed using 4 retractors. A coronary artery occluder, comprised of a snare made of 5 cm PE-10 tubing with a 6-0 Prolene polypropylene suture in it, was placed loosely around the left anterior descending artery (LAD) at its origin. Two unipolar electrodes, made with teflon coated silver wire attached to a small patch of filter paper, were attached on the surface of the ischemic and normal regions of the left ventricle to record epicardial electrocardiogram. Reference electrodes were placed in the open incision of the neck. The body temperature of the animal was monitored via a rectal thermometer and maintained at 37-40° C. by adjusting the surface temperature of the surgical table. Regional ischemia (15 min) was induced by ligating the LAD followed by 15 min of reperfusion caused by releasing the ligation. The heart was excised at the end of the experiment and the LAD was re-ligated. The ischemic area was visualized by perfusing the heart with 1% Evans blue in saline and calculated as a percentage of total ventricular weight. Rabbits with ischemic area less than 10% or larger than 25% were excluded from the analysis. Animals were randomly assigned to vehicle and test compound groups. Test compounds was dissolved in 5% NMP, 30% PG, 45% PEG 400 and 20% de-ionized water (dH2O). Test compound was given as an iv bolus at 0.1, 0.2 and 0.4 mg/kg. After 30 min of dosing, the heart was subjected to 15 min of ischemia followed by 15 min of reperfusion.

With `O=C1c2cc(-c3ccc(OC(F)(F)F)cc3)ccc2OCCN1Cc1ncccn1` [II-73, 4-(pyrimidin-2-ylmethyl)-7-(4-(trifluoromethoxy)phenyl)-3,4-dihydrobenzo[f][1,4]oxazepin-5(2H)-one] the IC50 ([1]; 10 Hz frequency) was > 10000 nM, the IC50 ([1]; frequency of 25 Hz) was 1500 nM and the “blocked the hCav1.2 late current” value ([2]; 1 μM concentration) was 14%. The “blocked the hCav1.2 peak current” value ([2]; 1 μM concentration) was 32%, the “blocked the hCav1.2 late current” value ([2]; 10 μM concentration) was 47% and the “blocked the hCav1.2 peak current” value ([2]; 10 μM concentration) was 79%. For the same compound, the “area under curve (AUC) for the ST segment height reduced (vs. control)” value ([3]; 0.5 μM plasma concentration, iv bolus, 15 min ischemia) was 93%, the “effect on blood pressure (BP), heart rate (HR) and ECG intervals prior to the ischemia” value ([3]; at the plasma concentration levels studied) was “no significant effect” and the “ischemia-induced ST elevation” value ([3]; iv bolus 30 min before 15 min ischemia) was “dose-dependently prevented”.
